For one experiment, the target named is T1, 0N4R Tau fibrils (Homo sapiens, UniProt P10636).
T1 construct: made in house
Description: ^3H-THK5117 competition binding to tau fibrils in vitro. The following applies: for IC50: 3 nM [^3H]-THK5117, recombinant 0N4R tau fibrils, average if run more than once; for Selectivity for tau relative to Aβ: calculated from [^3H]-THK5117 tau and [^3H]-AZD2184 Aβ assays. On the procedure: Preparation of recombinant 0N4R Tau fibrils was performed as previously described in Morozova, O. A., Biochemistry (2013), Vol., 52(40), pages 6960-6967. Competition binding experiments to 0N4R Tau fibrils were performed by incubating increasing concentrations [10^−10-10^−6 M] of the Example compounds of the invention, or the known tau specific ligand PBB3 (PBB3 was synthesized as previously described in M. Maruyama, et al, Neuron 2013, 79, 1094-1108) or MK6240 (Novandi Chemistry AB), in the presence of 3 nM of the known tau ligand [^3H]-THK5117 (Novandi Chemistry) and 0.2 mM 0N4R tau fibrils in binding buffer (50 mM Tris-HCl, pH 7.4, 0.1% BSA) for 1 h in the dark, and at 22° C. The incubation was terminated by filtration through a Whatman GF/B glass filter (Whatman International, Kent, UK) using a Brandel cell harvester. The filter was then washed rapidly four times with 3 mL of ice-cold wash buffer (5 mM Tris-HCl, 0.25 mM NaCl, 5% EtOH), and equilibrated for 1 h in scintillation vials containing 5 mL of Ultima Gold scintillation fluid before being analysed using a Liquid Scintillation Analyzer.
The results are shown in Table 2 in the column labeled “Tau IC50”.
Relative selectivity for tau compared to Aβ for the exemplified compounds was calculated using the results for the [^3H]-THK5117 tau and [^3H]-AZD2184 Aβ assays described above. The calculated results are shown in Table 2 in the column labeled “Selectivity for tau relative to Aβ”.

A further experiment deals with T2, Aβ(1-42) amyloid fibrils (Homo sapiens, UniProt P05067).
T2 construct: Aβ(1-42) amyloid fibrils
Description: ^3H-AZD2184 competition binding to Aβ(1-42) fibrils in vitro. The note with it: [^3H]-AZD2184, Aβ(1-42) amyloid fibrils; average if run more than once. As for the experimental part:
Competition binding experiments to Aβ(1-42) amyloid fibrils were performed as previously described in Jureus, A., et al, Journal of Neurochemistry (2010), Vol. 114, pages 784-794 for the Example compounds of the invention indicated in Table 2, or the known tau specific ligand PBB3 (PBB3 was synthesized as previously described in M. Maruyama, et al, Neuron 2013, 79, 1094-1108).
The results are shown in Table 2 in the column labeled “Aβ IC50”.

Broadly, the IC50 is the midpoint of a concentration-inhibition curve.

T1 sequence (P10636 1-383 isoform P10636-6): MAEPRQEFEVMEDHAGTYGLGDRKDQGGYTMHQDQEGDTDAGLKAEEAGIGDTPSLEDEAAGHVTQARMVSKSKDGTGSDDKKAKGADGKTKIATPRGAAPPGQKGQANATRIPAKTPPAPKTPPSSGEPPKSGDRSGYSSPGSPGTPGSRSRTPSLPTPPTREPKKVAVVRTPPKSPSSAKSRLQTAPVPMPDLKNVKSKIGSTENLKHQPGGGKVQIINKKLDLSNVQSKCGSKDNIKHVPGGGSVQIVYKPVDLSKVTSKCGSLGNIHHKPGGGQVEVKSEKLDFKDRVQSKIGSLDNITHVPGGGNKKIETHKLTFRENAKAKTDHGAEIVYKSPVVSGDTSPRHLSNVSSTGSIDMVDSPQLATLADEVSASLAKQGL
T2 sequence (P05067 672-713): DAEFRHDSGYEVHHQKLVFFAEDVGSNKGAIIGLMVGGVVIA

Take `N#CC1CCN(c2ccc(-c3nc4ccccc4o3)cn2)CC1` [Compound 17]: the IC50 on 0N4R Tau fibrils stood at 0.073 µM.

For the compound `OCCC1CCN(c2ncc(-c3nc4ccccc4[nH]3)cn2)CC1` [Compound 49, 2-{1-[5-(1H-1,3-Benzodiazol-2-yl)pyrimidin-2-yl]piperidin-4-yl}ethan-1-ol], the IC50 on 0N4R Tau fibrils was 0.049 µM. As for `FCCCCOCC1CCN(c2ccc(-c3nc4ccccc4s3)cn2)CC1` [Compound 3], on 0N4R Tau fibrils, the IC50 is 0.011 µM and the “Selectivity for tau relative to Aβ” value is listed as 3.9. The IC50 at Aβ(1-42) amyloid fibrils stood at 0.043 µM. In the same order, the values of `CCOC(=O)C1CCN(c2ccc(-c3cc4cc(O)ccc4[nH]3)c(F)n2)CC1` [Compound 65] are 0.002 µM, 22 and 0.044 µM. Consider `CCOC(=O)C1CCN(c2ccc(-c3cc4ccc(OC)cc4[nH]3)c(F)n2)CC1` [Compound 63, Ethyl 1-[6-Fluoro-5-(6-methoxy-1H-indol-2-yl)pyridin-2-yl]piperidine-4-carboxylate], for which, at 0N4R Tau fibrils, the IC50 came to 0.0023 µM. As to `COc1ccc2nc(-c3cnc(N4CCC(CCO)CC4)nc3)sc2c1` [Compound 25], the results for the IC50 at 0N4R Tau fibrils and at Aβ(1-42) amyloid fibrils were 0.003 µM and 0.065 µM, respectively. Further, the “Selectivity for tau relative to Aβ” value on 0N4R Tau fibrils is reported as 22. `NC(=O)c1ccc2cc(-c3cnc(N4CCC(CF)CC4)nc3)[nH]c2c1` [Compound 70, 2-{2-[4-(Fluoromethyl)piperidin-1-yl]pyrimidin-5-yl}-1H-indole-6-carboxamide]: on 0N4R Tau fibrils, the half-maximal inhibitory concentration (IC50) came out at 0.02 µM. On the same count and under the same terms, then `c1ccc2oc(-c3ccc(N4CCCCC4)nc3)nc2c1` [Compound 14], with 0.022 µM. For the compound `COc1ncc2cc(-c3ccc(N4CCC(CO)CC4)nc3F)[nH]c2n1` [Compound 76, [1-(6-Fluoro-5-{2-methoxy-7H-pyrrolo[2,3-d]pyrimidin-6-yl}pyridin-2-yl)piperidin-4-yl]methanol], on 0N4R Tau fibrils, the IC50 was found to be 0.009 µM and the “Selectivity for tau relative to Aβ” value was 36. Also, at Aβ(1-42) amyloid fibrils, the IC50 stood at 0.322 µM. In the case of `FCCC1CCN(c2ccc(-c3nc4cnccc4o3)cn2)CC1` [Compound 20], the concentration for half-maximal inhibition (IC50) on 0N4R Tau fibrils is 0.06 µM. On to `COc1ccc2nc(-c3ccc(N4CCC(CCOCCOCCOCCF)CC4)nc3)sc2c1` [Compound 22], for which, at 0N4R Tau fibrils, the 50% inhibitory concentration (IC50) worked out at 0.004 µM and the “Selectivity for tau relative to Aβ” value is recorded as 1. Also, the IC50 on Aβ(1-42) amyloid fibrils worked out at 0.004 µM. `COc1ccc2nc(-c3cnc(N4CCC(CCF)CC4)nc3)cn2c1` [Compound 53]: at 0N4R Tau fibrils, the IC50 came out at 0.014 µM and the “Selectivity for tau relative to Aβ” value is listed as 2.6. The same compound returned a concentration for half-maximal inhibition (IC50) on Aβ(1-42) amyloid fibrils of 0.037 µM. `CS(=O)(=O)OCCC1CCN(c2ccc(-c3nc4cnccc4o3)cn2)CC1` [Compound 19]: the IC50 on 0N4R Tau fibrils is 0.076 µM. Regarding `COc1ccc2nc(-c3ccc(N4CCC(OCCO)CC4)nc3)sc2c1` [Compound 23], the IC50 on 0N4R Tau fibrils and on Aβ(1-42) amyloid fibrils was 0.004 µM in each case. In addition, the “Selectivity for tau relative to Aβ” value on 0N4R Tau fibrils is 1. `O=C(NCCF)c1ccc2nc(-c3cnc(N4CCC(CCO)CC4)nc3)sc2c1` [Compound 61]: on 0N4R Tau fibrils, the IC50 turned out to be 0.019 µM. Still for that read-out and setting: then `NC(=O)COC1CCN(c2ccc(-c3nc4ccccc4s3)cn2)CC1` [Compound 10], with 0.031 µM. Same read-out and setting: then `CS(=O)(=O)OCCC1CCN(c2ncc(-c3nc4ccc(C(N)=O)cc4s3)cn2)CC1` [Compound 42], with 0.015 µM. As for `OCCC1CCN(c2ncc(-c3nc4ccc(O)cc4s3)cn2)CC1` [Compound 38], at 0N4R Tau fibrils, the half-maximal inhibitory concentration (IC50) is 0.006 µM and the “Selectivity for tau relative to Aβ” value is recorded as 42. Moreover, on Aβ(1-42) amyloid fibrils, the IC50 is 0.25 µM. In the same order, the values of `OCCC1CCN(c2ncc(-c3cc4ccccc4o3)cn2)CC1` [Compound 28] are 0.01 µM, 1.5 and 0.015 µM. `OCC1CCN(c2ccc(-c3cc4cc(O)cnc4[nH]3)c(F)n2)CC1` [Compound 75]: the concentration for half-maximal inhibition (IC50) at 0N4R Tau fibrils came to 0.014 µM.

On to `FCC1CCN(c2ccc(-c3nc4ccccc4s3)cn2)CC1` [Compound 2], for which the IC50 on 0N4R Tau fibrils was 0.007 µM. Still for that read-out and setting: then `CNC(=O)c1ccc2cc(-c3ccc(N4CCC(CO)CC4)nc3F)[nH]c2c1` [Compound 64, 2-{2-Fluoro-6-[4-(hydroxymethyl)piperidin-1-yl]pyridin-3-yl}-N-methyl-1H-indole-6-carboxamide], with 0.024 µM; and `OCCC1CCN(c2ccc(-c3nc4cnccc4o3)cn2)CC1` [Compound 18], with 0.039 µM. Take `COC(=O)C1CCN(c2ccc(-c3cc4cc(O)ccc4[nH]3)c(F)n2)CC1` [Compound 67]: on 0N4R Tau fibrils, the half-inhibitory concentration (IC50) was 0.004 µM and the “Selectivity for tau relative to Aβ” value is on record as 8. The same compound had an IC50 at Aβ(1-42) amyloid fibrils of 0.032 µM. For `NC(=O)C1CCN(c2ccc(-c3cc4cc(O)ccc4[nH]3)c(F)n2)CC1` [Compound 66], in that order: 0.021 µM, 13 and 0.272 µM.

On to `OCCC1CCN(c2ccc(-c3cc4ccccc4o3)c(F)n2)CC1` [Compound 46], for which the values for the half-inhibitory concentration (IC50) on 0N4R Tau fibrils and at Aβ(1-42) amyloid fibrils were 0.006 µM and 0.053 µM, respectively. Moreover, the “Selectivity for tau relative to Aβ” value on 0N4R Tau fibrils is reported as 8.8. In the same order, the values of `O=C(NCCO)c1ccc2nc(-c3cnc(N4CCC(CCF)CC4)nc3)sc2c1` [Compound 60] are 0.011 µM, 0.028 µM and 2.5. Turning to `CC1CCN(c2ccc(-c3nc4ccccc4o3)cn2)CC1` [Compound 16], on 0N4R Tau fibrils, the half-maximal inhibitory concentration (IC50) was found to be 0.059 µM. With `OCC1CCN(c2ccc(-c3nc4ccc(OCCF)cc4s3)cn2)CC1` [Compound 56], on 0N4R Tau fibrils, the IC50 turned out to be 0.002 µM and the “Selectivity for tau relative to Aβ” value is given as 1.5. For the same compound, at Aβ(1-42) amyloid fibrils, the half-maximal inhibitory concentration (IC50) was 0.003 µM. `NC(=O)COC1CCN(c2ncc(-c3cc4ccccc4o3)cn2)CC1` [Compound 34]: at 0N4R Tau fibrils, the IC50 stood at 0.032 µM. The same measure, in the same setting: with `COc1cnc2[nH]c(-c3ccc(N4CCC(CO)CC4)nc3F)cc2c1` [Compound 74] the figure was 0.014 µM; with `Cc1ccc(S(=O)(=O)OCCC2CCN(c3ccc(-c4nc5ccccc5s4)cn3)CC2)cc1` [Compound 8], 0.008 µM; with `OCCC1CCN(c2ccc(-c3cc4ccccc4o3)nn2)CC1` [Compound 35], 0.1 µM. The same measure, in the same setting: with `FCCC1CCN(c2ccc(-c3nc4ccccc4s3)cn2)CC1` [Compound 9] the figure was 0.006 µM; with `OCC1CCN(c2ccc(-c3cc4cc(OCCF)ccc4[nH]3)cn2)CC1` [Compound 77], 0.014 µM; with `OCCC1CCN(c2ccc(-c3nc4ccc(OCC(O)CF)cc4s3)cn2)CC1` (stereo not shown) [Compound 37], 0.014 µM. On the same count and under the same terms, then `OCCOC1CCN(c2ncc(-c3cc4ccccc4o3)cn2)CC1` [Compound 31], with 0.015 µM. For the compound `FCCC1CCN(c2ccc(-c3nc4ccccc4o3)cn2)CC1` [Compound 13], on 0N4R Tau fibrils, the concentration for half-maximal inhibition (IC50) came out at 0.013 µM. Consider `COC1CCN(c2ccc(-c3nc4ccccc4o3)cn2)CC1` [Compound 15], for which the IC50 on 0N4R Tau fibrils came out at 0.039 µM.

For the compound `CS(=O)(=O)OCCC1CCN(c2ccc(-c3nc4ccccc4o3)cn2)CC1` [Compound 12], the half-inhibitory concentration (IC50) at 0N4R Tau fibrils was 0.017 µM. The same measure, in the same setting: then `OCCC1CCN(c2ccc(-c3cc4ccccc4s3)cn2)CC1` [Compound 50, 2-{1-[5-(1-Benzothiophen-2-yl)pyridin-2-yl]piperidin-4-yl}ethan-1-ol], with 0.004 µM; and `OCC1CCN(c2ccc(-c3nc4ccc(O)cc4s3)cn2)CC1` [Compound 55], with 0.007 µM; and `OC1CCN(c2ccc(-c3nc4ccccc4s3)cn2)CC1` [Compound 4], with 0.043 µM.

As for `CCOC(=O)c1ccc2nc(-c3cnc(N4CCC(CCO)CC4)nc3)sc2c1` [Compound 59], the half-maximal inhibitory concentration (IC50) at 0N4R Tau fibrils came to 0.005 µM. Turning to `OCC1CCN(c2ccc(-c3cc4cccnc4[nH]3)c(F)n2)CC1` [Compound 73, [1-(6-Fluoro-5-{1H-pyrrolo[2,3-b]pyridin-2-yl}pyridin-2-yl)piperidin-4-yl]methanol], on 0N4R Tau fibrils, the concentration for half-maximal inhibition (IC50) worked out at 0.041 µM. On the same count and under the same terms, then `COS(=O)(=O)CCC1CCN(c2ncc(-c3cc4ccccc4o3)cn2)CC1` [Compound 29], with 0.032 µM; and `COc1ccc2[nH]c(-c3ccc(N4CCC(CCO)CC4)nc3)cc2c1` [Compound 51, 2-{1-[5-(5-Methoxy-1H-indol-2-yl)pyridin-2-yl]piperidin-4-yl}ethan-1-ol], with 0.013 µM; and `OCC1CCN(c2ccc(-c3nc4ccccc4s3)cn2)CC1` [Compound 1], with 0.019 µM. On the same count and under the same terms, with `CCOC(=O)c1ccc2nc(-c3cnc(N4CCC(CCF)CC4)nc3)sc2c1` [Compound 44] the figure was 0.004 µM. Consider `OCCC1CCN(c2ccc(-c3nc4ccccc4o3)cn2)CC1` [Compound 11], for which the IC50 on 0N4R Tau fibrils turned out to be 0.064 µM. `NC(=O)c1ccc2nc(-c3cnc(N4CCC(CCO)CC4)nc3)sc2c1` [Compound 41]: the IC50 on 0N4R Tau fibrils came to 0.01 µM.

The record behind these values is US12636385B2, “Selective ligands for tau aggregates” (Sentonix, Inc., priority 2018, dated 2026).
